Assay results: patent US10336739B2, “4-hydroxy-3-(heteroaryl)pyridine-2-one APJ agonists” (BRISTOL-MYERS SQUIBB COMPANY, priority 2015, dated 2019)
pEC50: −log10 of the molar value.

Target: human APJ receptor (Homo sapiens (Human), UniProt P35414)
Assay: Intracellular cAMP accumulation assay (APJ hcAMP, HTRF)
Format: cell-based
Details: HEK293 cells stably expressing human APJ receptor; inhibition of forskolin-mediated cAMP production; read-out: Human APJ cAMP EC50 Potency range
Experimental: Intracellular cAMP Accumulation Assay
HEK293 cells stably expressing human APJ receptor were used to assess the activity of compounds. Cultured cells were detached and resuspended in the cAMP Homogeneous Time-Resolved Fluorescence (HTRF) assay buffer (Cisbio cat; #62AM4PEJ). The assay was performed in 384-well assay plates (Perkin-Elmer; cat #6008289) according to assay protocol provided by the manufacturer. Serial dilutions of a compound together with assay buffer containing […] and 2 μM forskolin were added to each well containing 5,000 cells and incubated for 30 minutes at room temperature. Subsequently, cAMP D2 reagent was added in the lysis buffer followed by the EuK antibody (Cisbio; cat #62AM4PEJ) and incubated for 60 min. The fluorescence emission ratio was measured using fluorometer. The intracellular cAMP concentrations (compound-stimulated inhibition of forskolin-mediated cAMP production) were calculated by extrapolation from a standard curve using known cAMP concentrations. The EC50 values were obtained by fitting the data to a sigmoidal concentration-response curve with variable slope.

human APJ receptor, sequence (P35414 whole entry): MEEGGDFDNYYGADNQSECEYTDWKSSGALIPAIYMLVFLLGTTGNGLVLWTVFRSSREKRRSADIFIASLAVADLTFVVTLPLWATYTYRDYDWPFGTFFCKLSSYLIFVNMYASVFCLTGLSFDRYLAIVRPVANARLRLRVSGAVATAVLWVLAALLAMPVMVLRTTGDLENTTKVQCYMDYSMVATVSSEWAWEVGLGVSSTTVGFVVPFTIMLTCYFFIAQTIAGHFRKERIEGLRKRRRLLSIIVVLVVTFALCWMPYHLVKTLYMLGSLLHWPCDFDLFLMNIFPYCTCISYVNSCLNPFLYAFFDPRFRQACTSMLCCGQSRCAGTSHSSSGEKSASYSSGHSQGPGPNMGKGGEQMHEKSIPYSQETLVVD

| pEC50 | Compound |
| --- | --- |
| 7.00 to 8.00 | CCCCc1nc(O)c(-c2nnc(Cc3ccc(Cl)cc3)o2)c(O)c1-c1c(OC)ccc(F)c1OC (single isomer, unassigned) [Example 218, 6-butyl-3-{5-[(4-chlorophenyl)methyl]-1,3,4-oxadiazol-2-yl}-5-(3-fluoro-2,6-dimethoxyphenyl)pyridine-2,4-diol] |
| 8.00 to 11.00 | CCCCc1nc(O)c(-c2nnc(Cc3ccc(Cl)cc3)o2)c(O)c1-c1c(OC)ccc(F)c1OC (single isomer, unassigned) [Example 219, 6-butyl-3-{5-[(4-chlorophenyl)methyl]-1,3,4-oxadiazol-2-yl}-5-(3-fluoro-2,6-dimethoxyphenyl)pyridine-2,4-diol] |
| 8.00 to 11.00 | CCOCc1nc(O)c(-c2nnc(Cc3ccc(Cl)cc3)o2)c(O)c1-c1c(O)cccc1OC (single isomer, unassigned) [Example 222, 3-{5-[(4-chlorophenyl)methyl]-1,3,4-oxadiazol-2-yl}-6-(ethoxymethyl)-5-(2-hydroxy-6-methoxyphenyl)pyridine-2,4-diol] |
| 7.00 to 8.00 | CCOCc1nc(O)c(-c2nnc(Cc3ccc(Cl)cc3)o2)c(O)c1-c1c(O)cccc1OC (single isomer, unassigned) [Example 223, 3-{5-[(4-chlorophenyl)methyl]-1,3,4-oxadiazol-2-yl}-6-(ethoxymethyl)-5-(2-hydroxy-6-methoxyphenyl)pyridine-2,4-diol] |

Same assay, conditions: HEK293 cells stably expressing human APJ receptor; inhibition of forskolin-mediated cAMP production; read-out: hAPJ cAMP EC50 Potency range

| Compound | pEC50 |
| --- | --- |
| CCCCc1nc(O)c(-c2nnc(Cc3noc4ccccc34)o2)c(O)c1-c1c(OC)ccc(F)c1OC (single isomer, unassigned; isomer 1) [Example 220, 3-[5-(1,2-benzoxazol-3-ylmethyl)-1,3,4-oxadiazol-2-yl]-6-butyl-5-(3-fluoro-2,6-dimethoxyphenyl) pyridine-2,4-diol (isomer 1)] | 7.00 to 8.00 |
| CCCCc1nc(O)c(-c2nnc(Cc3ccncc3)o2)c(O)c1-c1c(OC)cccc1OC [Example 3, 6-butyl-5-(2,6-dimethoxyphenyl)-3-[5-(pyridin-4-ylmethyl)-1,3,4-oxadiazol-2-yl]pyridine-2,4-diol] | 7.00 to 8.00 |
| CCCCc1nc(O)c(-c2nnc(CCc3ccccc3)o2)c(O)c1-c1c(OC)cccc1OC [Example 4, 6-butyl-5-(2,6-dimethoxyphenyl)-3-[5-(2-phenylethyl)-1,3,4-oxadiazol-2-yl]pyridine-2,4-diol] | 7.00 to 8.00 |
| CCCCc1nc(O)c(-c2nnc(Cc3ccccc3Cl)o2)c(O)c1-c1c(OC)cccc1OC [Example 5, 6-butyl-3-{5-[(2-chlorophenyl)methyl]-1,3,4-oxadiazol-2-yl}-5-(2,6-dimethoxyphenyl) pyridine-2,4-diol] | 7.00 to 8.00 |
| CCCCc1nc(O)c(-c2nnc(Cc3ccc(OC)cc3)o2)c(O)c1-c1c(OC)cccc1OC [Example 9, 6-butyl-5-(2,6-dimethoxyphenyl)-3-{5-[(4-methoxyphenyl)methyl]-1,3,4-oxadiazol-2-yl}pyridine-2,4-diol] | 8.00 to 11.00 |
| CCCCc1nc(O)c(-c2nnc(-c3cccc(Cl)c3)o2)c(O)c1-c1c(OC)cccc1OC [Example 10, 6-butyl-3-[5-(3-chlorophenyl)-1,3,4-oxadiazol-2-yl]-5-(2,6-dimethoxyphenyl) pyridine-2,4-diol] | 7.00 to 8.00 |
| CCCCc1nc(O)c(-c2nnc(C3(c4ccccc4)CC3)o2)c(O)c1-c1c(OC)cccc1OC [Example 13, 6-butyl-5-(2,6-dimethoxyphenyl)-3-[5-(1-phenylcyclopropyl)-1,3,4-oxadiazol-2-yl]pyridine-2,4-diol] | 7.00 to 8.00 |
| CCCCc1nc(O)c(-c2nnc(C(C)(C)c3ccccc3)o2)c(O)c1-c1c(OC)cccc1OC [Example 15, 6-butyl-5-(2,6-dimethoxyphenyl)-3-[5-(2-phenylpropan-2-yl)-1,3,4-oxadiazol-2-yl]pyridine-2,4-diol] | 8.00 to 11.00 |
| C=CCCc1nc(O)c(-c2nnc(Cc3ccccc3)o2)c(O)c1-c1c(OC)cccc1OC [Example 18, 3-(5-benzyl-1,3,4-oxadiazol-2-yl)-6-(but-3-en-1-yl)-5-(2,6-dimethoxyphenyl) pyridine-2,4-diol] | 7.00 to 8.00 |
| CCCCc1nc(O)c(-c2nnc(-c3cc(C)[nH]n3)o2)c(O)c1-c1c(OC)cccc1OC [Example 19, 6-butyl-5-(2,6-dimethoxyphenyl)-3-[5-(5-methyl-1H-pyrazol-3-yl)-1,3,4-oxadiazol-2-yl]pyridine-2,4-diol] | 6.52 to 7.00 |
| CCCCc1nc(O)c(-c2nnc(Cc3cnccn3)o2)c(O)c1-c1c(OC)cccc1OC [Example 21, 6-butyl-5-(2,6-dimethoxyphenyl)-3-[5-(pyrazin-2-ylmethyl)-1,3,4-oxadiazol-2-yl]pyridine-2,4-diol] | 8.00 to 11.00 |
| CCCCc1nc(O)c(-c2nnc(Cc3cncnc3)o2)c(O)c1-c1c(OC)cccc1OC [Example 22, 6-butyl-5-(2,6-dimethoxyphenyl)-3-[5-(pyrimidin-5-ylmethyl)-1,3,4-oxadiazol-2-yl]pyridine-2,4-diol] | 7.00 to 8.00 |
| CCCCc1nc(O)c(-c2nnc(C(F)(F)c3ccccc3)o2)c(O)c1-c1c(OC)cccc1OC [Example 24, 6-butyl-3-{5-[difluoro(phenyl)methyl]-1,3,4-oxadiazol-2-yl}-5-(2,6-dimethoxyphenyl) pyridine-2,4-diol] | 7.00 to 8.00 |
| C=CCCc1nc(O)c(-c2nnc(Cc3noc4ccccc34)o2)c(O)c1-c1c(OC)cccc1OC [Example 27, 3-[5-(1,2-benzoxazol-3-ylmethyl)-1,3,4-oxadiazol-2-yl]-6-(but-3-en-1-yl)-5-(2,6-dimethoxyphenyl) pyridine-2,4-diol] | 8.00 to 11.00 |

Now from value to compound:

| pEC50 | Compound |
| --- | --- |
| 8.00 to 11.00 | CCCCc1nc(O)c(-c2nnc(Cc3noc4ccccc34)o2)c(O)c1-c1c(OC)ccc(F)c1OC (single isomer, unassigned; isomer 2) [Example 221, 3-[5-(1,2-benzoxazol-3-ylmethyl)-1,3,4-oxadiazol-2-yl]-6-butyl-5-(3-fluoro-2,6-dimethoxyphenyl) pyridine-2,4-diol (isomer 2)] |
| 6.52 to 7.00 | CCCCc1nc(O)c(-c2nnc(Cc3ccccc3)o2)c(O)c1-c1c(OC)cc(C)cc1OC [Example 2, 3-(5-benzyl-1,3,4-oxadiazol-2-yl)-6-butyl-5-(2,6-dimethoxy-4-methylphenyl) pyridine-2,4-diol] |
| 7.00 to 8.00 | CCCCc1nc(O)c(-c2nnc(Cc3ccccc3OC)o2)c(O)c1-c1c(OC)cccc1OC [Example 6, 6-butyl-5-(2,6-dimethoxyphenyl)-3-{5-[(2-methoxyphenyl)methyl]-1,3,4-oxadiazol-2-yl}pyridine-2,4-diol] |
| 8.00 to 11.00 | CCCCc1nc(O)c(-c2nnc(Cc3cccc(OC)c3)o2)c(O)c1-c1c(OC)cccc1OC [Example 7, 6-butyl-5-(2,6-dimethoxyphenyl)-3-{5-[(3-methoxyphenyl)methyl]-1,3,4-oxadiazol-2-yl}pyridine-2,4-diol] |
| 8.00 to 11.00 | CCCCc1nc(O)c(-c2nnc(Cc3ccc(Cl)cc3)o2)c(O)c1-c1c(OC)cccc1OC [Example 8, 6-butyl-3-{5-[(4-chlorophenyl)methyl]-1,3,4-oxadiazol-2-yl}-5-(2,6-dimethoxyphenyl) pyridine-2,4-diol] |
| 6.52 to 7.00 | CCCCc1nc(O)c(-c2nnc(-c3ccccc3Cl)o2)c(O)c1-c1c(OC)cccc1OC [Example 11, 6-butyl-3-[5-(2-chlorophenyl)-1,3,4-oxadiazol-2-yl]-5-(2,6-dimethoxyphenyl) pyridine-2,4-diol] |
| 6.52 to 7.00 | CCCCc1nc(O)c(-c2nnc(-c3cnccn3)o2)c(O)c1-c1c(OC)cccc1OC [Example 12, 6-butyl-5-(2,6-dimethoxyphenyl)-3-[5-(pyrazin-2-yl)-1,3,4-oxadiazol-2-yl]pyridine-2,4-diol] |
| 6.52 to 7.00 | CCCCc1nc(O)c(-c2nnc(C3CC3)o2)c(O)c1-c1c(OC)cccc1OC [Example 14, 6-butyl-3-(5-cyclopropyl-1,3,4-oxadiazol-2-yl)-5-(2,6-dimethoxyphenyl) pyridine-2,4-diol] |
| 7.00 to 8.00 | CCCCc1nc(O)c(-c2nnc(COc3ccccc3)o2)c(O)c1-c1c(OC)cccc1OC [Example 17, 6-butyl-5-(2,6-dimethoxyphenyl)-3-[5-(phenoxymethyl)-1,3,4-oxadiazol-2-yl]pyridine-2,4-diol] |
| 8.00 to 11.00 | CCCCc1nc(O)c(-c2nnc(Cc3noc4ccccc34)o2)c(O)c1-c1c(OC)cccc1OC [Example 20, 3-[5-(1,2-benzoxazol-3-ylmethyl)-1,3,4-oxadiazol-2-yl]-6-butyl-5-(2,6-dimethoxyphenyl) pyridine-2,4-diol] |
| 8.00 to 11.00 | CCCCc1nc(O)c(-c2nnc(Cc3cccc(Cl)c3)o2)c(O)c1-c1c(OC)cccc1OC [Example 23, 6-butyl-3-{5-[(3-chlorophenyl)methyl]-1,3,4-oxadiazol-2-yl}-5-(2,6-dimethoxyphenyl) pyridine-2,4-diol] |
| 8.00 to 11.00 | CCCCc1nc(O)c(-c2nnc(Cc3nc4ccccc4o3)o2)c(O)c1-c1c(OC)cccc1OC [Example 25, 3-[5-(1,3-benzoxazol-2-ylmethyl)-1,3,4-oxadiazol-2-yl]-6-butyl-5-(2,6-dimethoxyphenyl) pyridine-2,4-diol] |
| 8.00 to 11.00 | CCCCc1nc(O)c(-c2nnc(Cc3noc4ccccc34)o2)c(O)c1-c1c(OC)cc(C)cc1OC [Example 26, 3-[5-(1,2-benzoxazol-3-ylmethyl)-1,3,4-oxadiazol-2-yl]-6-butyl-5-(2,6-dimethoxy-4-methylphenyl) pyridine-2,4-diol] |
